Data reported in US9487504B2, “Imidazolyl analogs as syk inhibitors” (Merck Sharp & Dohme Corp., priority 2012, dated 2016).
Where two headings read alike, the source gives them in different places.

Legend:
[1] = biological target: T1, recombinant human GST-Syk (Homo sapiens, UniProt P43405); test: Homogeneous Time-Resolved Fluorescence (HTRF) assay for the recombinant human Syk enzyme; assay type: biochemical; details: ATP 25 μM, 10-dose titration
T1 construct: purchased Carna Biosciences 08-176
How it was run: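 Recombinant GST-hSyk ([…]) was preincubated 10 min at room temperature with inhibitor (0.1% DMSO) in Tris pH 7.5, then reacted for 45 min with 250 nM biotinylated peptide, 5 mM Mg and 25 μM ATP. Phosphorylation was detected by HTRF (Eu-anti-phosphotyrosine/SA-APC). IC50 was derived from a 10-dose titration (10 μM–0.508 nM) with a 4-parameter fit.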

allergic rhinitis [2] = details: dosed intranasally, phase I/II study; cited from earlier work
allergic rhinitis [3] = details: phase II clinical trial; cited from earlier work

Structure (SMILES) | IC50 ([1]; read-out: rhSYK Activity) [nM] | also measured
Cc1ccnc(Nc2cccc(-n3cnc(C(C)(C)O)c3)n2)c1 [Example 100, 2-(1-{6-[(4-methylpyridin-2-yl)amino]pyridin-2-yl}-1H-imidazol-4-yl)propan-2-ol] | 100 to 1000 | 
CC(C)(O)c1cn(-c2cccc(Nc3cc(Cl)ccn3)n2)cn1 [Example 101, 2-(1-{6-[(4-chloropyridin-2-yl)amino]pyridin-2-yl}-1H-imidazol-4-yl)propan-2-ol] | ≤ 100 | 
COC(=O)c1cn(-c2cccc(Nc3cc(C)ccn3)n2)cn1 [Example 102, Methyl 1-{6-[(4-methylpyridin-2-yl)amino]pyridin-2-yl}-1H-imidazole-4-carboxylate] | 100 to 1000 | 
CC(C)(O)c1cn(-c2cccc(Nc3nccc(C(F)(F)F)n3)c2)cn1 [Example 104, 2-[1-(3-{[4-(trifluoromethyl)pyrimidin-2-yl]amino}-phenyl)-1H-imidazol-4-yl]propan-2-ol] | 100 to 1000 | 
COC(=O)c1cn(-c2cc(Nc3nccc(C(F)(F)F)n3)cc(N3CCOCC3)c2)cn1 [Example 108, Methyl 1-(3-morpholin-4-yl-5-{[4-(trifluoromethyl)-pyrimidin-2-yl]amino}-phenyl)-1H-imidazole-4-carboxylate] | 100 to 1000 | 
Cc1cc(Nc2nccc(C(F)(F)F)n2)cc(-n2cnc(C(C)(C)C#N)c2)c1 [Example 110, 2-Methyl-2-[1-(3-methyl-5-{[4-(trifluoromethyl)pyrimidin-2-yl]amino}phenyl)-1H-imidazol-4-yl]propanenitrile] | 100 to 1000 | 
O=C(O)CCc1cn(-c2cccc(Nc3cc(C(F)(F)F)ccn3)n2)cn1 [Example 114, 3-(1-(6-((4-(Trifluoromethyl)pyridin-2-yl)amino)pyridin-2-yl)-1H-imidazol-4-yl)propanoic acid] | ≤ 100 | 
Cc1cc(Nc2cc(C3CC3)ccn2)nc(-n2cnc(CCC(=O)O)c2)c1 [Example 115, 3-(1-(6-((4-cyclopropylpyridin-2-yl)amino)-4-methylpyridin-2-yl)-1H-imidazol-4-yl)propanoic acid] | ≤ 100 | 
Cc1cc(Nc2cc(C(F)(F)F)ccn2)nc(-n2cnc(C3(O)CCN(C(N)=O)CC3)c2)c1 [Example 116, 4-Hydroxy-4-[1-(4-methyl-6-{[4-(trifluoromethyl)pyridin-2-yl]amino}pyridin-2-yl)-1H-imidazol-4-yl]piperidine-1-carboxamide] | ≤ 100 | IC50 ([1]; read-out: rhSYK IC50): 3.6 nM
Cc1cc(Nc2nccc(C(F)(F)F)n2)cc(-n2cnc(C3(O)CCN(C(N)=O)CC3)c2)c1 [Example 117, 4-Hydroxy-4-[1-(3-methyl-5-{[4-(trifluoromethyl)pyrimidin-2-yl]amino}phenyl)-1H-imidazol-4-yl]piperidine-1-carboxamide] | ≤ 100 | IC50 ([1]; read-out: rhSYK IC50): 9 nM
Oc1cccc(Nc2ncc(F)c(Nc3cccc(O)c3)n2)c1 [Example R112] |  | PGD2 change (allergic rhinitis [2]): statistically significant decrease in PGD2; clinical safety (allergic rhinitis [2]): safe across a range of indicators; efficacy versus placebo (allergic rhinitis [3]): lack of efficacy versus placebo

Second part, led by results:

IC50 ([1]; read-out: rhSYK Activity) [nM] | Structure (SMILES) | also measured
≤ 100 | Cc1cc(Nc2nccc(C(F)(F)F)n2)cc(-n2cnc(C(C)(C)O)c2)c1 [Example 99, 2-[1-(3-methyl-5-{[4-(trifluoromethyl)pyrimidin-2-yl]amino}phenyl)-1H-imidazol-4-yl]propan-2-ol] | 
100 to 1000 | CC(C)NC(=O)c1cn(-c2cccc(Nc3nccc(C(F)(F)F)n3)c2)cn1 [Example 103, N-(1-methylethyl)-1-(3-{[4-(trifluoromethyl)pyrimidin-2-yl]amino}phenyl)-1H-imidazole-4-carboxamide] | 
≤ 100 | CC(C)(O)CCc1cn(-c2cc(Nc3nccc(C(F)(F)F)n3)cc(N3CCOCC3)c2)cn1 [Example 105, 2-methyl-4-[1-(3-morpholin-4-yl-5-{[4-(trifluoromethyl)pyrimidin-2-yl]amino}-phenyl)-1H-imidazol-4-yl]butan-2-ol] | 
≤ 100 | COC(=O)CCc1cn(-c2cc(Nc3nccc(C(F)(F)F)n3)cc(N3CCOCC3)c2)cn1 [Example 106, Methyl 3-[1-(3-morpholin-4-yl-5-{[4-(trifluoromethyl)pyrimidin-2-yl]amino}-phenyl)-1H-imidazol-4-yl]propanoate] | 
≤ 100 | CC(C)(O)c1cn(-c2cc(Nc3nccc(C(F)(F)F)n3)cc(N3CCOCC3)c2)cn1 [Example 107, 2-[1-(3-morpholin-4-yl-5-{[4-(trifluoromethyl)pyrimidin-2-yl]amino}-phenyl)-1H-imidazol-4-yl]propan-2-ol] | 
≤ 100 | Cc1cc(Nc2nccc(C(F)(F)F)n2)cc(-n2cnc(C3(O)CCNC(=O)CC3)c2)c1 (stereo not drawn) [Example 109, 5-hydroxy-5-[1-(3-methyl-5-{[4-(trifluoromethyl)pyrimidin-2-yl]amino}phenyl)-1H-imidazol-4-yl]azepan-2-one] | IC50 ([1]; read-out: rhSYK IC50): 19.7 nM
≤ 100 | Cc1cc(Nc2nccc(C(F)(F)F)n2)cc(-n2cnc(C(C)(C)C(=O)O)c2)c1 [Example 111, 2-Methyl-2-[1-(3-methyl-5-{[4-(trifluoromethyl)pyrimidin-2-yl]amino}phenyl)-1H-imidazol-4-yl]propanoic acid] | 
≤ 100 | C=C(C)c1cn(-c2cc(C)cc(Nc3nccc(C(F)(F)F)n3)c2)cn1 [Example 112, N-{3-Methyl-5-[4-(prop-1-en-2-yl)-1H-imidazol-1-yl]phenyl}-4-(trifluoromethyl)pyrimidin-2-amine] | 
